Here are results for 1 compound from patent US9072732B2 (priority 2010, dated 2015).

The test system of one data set is Hep G2 cells. Conditions: niacin 0.5 mM 24 h, then ethanol 48 h in presence or absence of niacin.
In data set [1] the test system is high-fat-induced NAFLD in rats. The data set is described as follows: High-fat diet-induced NAFLD model in rats. Conditions: 4 weeks.

Each structure is given as a SMILES string.

Text for Hep G2 cells: Cellular fat accumulation was quantitated by nile red O staining and by measuring fluorescence intensity.

As for `O=C(O)c1cccnc1` [niacin, nicotinic acid], the alcohol-induced fat accumulation entry in the data set on Hep G2 cells is recorded as “significantly inhibited”. In addition, the serum cholesterol levels entry in data set [1] (niacin 0.5% and 1% in high-fat diet, compared to rats fed high-fat diet) is recorded as “significantly decreased”. The “body weight of rats” value in data set [1] (niacin 0.5% or 1% in high-fat diet, compared to high-fat fed rats) is on record as “no effect”. Besides, the serum triglyceride levels result in data set [1] (niacin in high-fat diet, compared to rats fed high-fat diet) is “significantly decreased”.
